Assay results from US12275734B1, “Pleuromutilin onium salt derivative containing a 3H-imidazo[4,5-c]pyridine side chain, and a preparation method and application thereof” (SHAANXI UNIVERSITY OF SCIENCE AND TECHNOLOGY, priority 2024, dated 2025).

Tested on: E. coli (ATCC 25922)
Test: Cell membrane integrity, propidium iodide staining
Type: cell-based
Method: The steps for dead cell staining using propidium iodide are as follows:
At the beginning of the experiment, samples were taken from MRSA and E. coli in the logarithmic growth phase, centrifuged at 8000 rpm for 5 minutes and washed twice with 0.85% NaCl solution to remove the culture medium and other possible interfering substances. Afterwards, the bacteria were resuspended in 0.85% NaCl solution and the concentration was adjusted to approximately 1×10^8 CFU/mL.
[…] After incubation, in order to mark and distinguish dead cells, 15 μM propidium iodide solution was added to each sample and incubated in the dark for 15 minutes. PI is a fluorescent dye that binds to DNA and can only penetrate into dead cells with damaged cell membranes.
Finally, the samples were observed using a fluorescence microscope or a confocal laser scanning microscope. By setting the appropriate fluorescence channel (excitation wavelength 535 nm, emission wavelength 617 nm), the red fluorescence emitted by dead cells can be detected. In this way, the effect of compound i on the lethality of bacterial cells can be intuitively evaluated and recorded, providing an experimental basis for further drug research.

C=C[C@]1(C)C[C@@H](OC(=O)CSc2nc3cc[n+](Cc4ccc(C)cc4)cc3[nH]2)[C@]2(C)[C@H](C)CC[C@]3(CCC(=O)[C@H]32)[C@@H](C)[C@@H]1O [Compound i, 5-(4-methylbenzyl)-2-((2-(((3aR,4R,5R,7S,8S,9R,9aS,12R)-8-hydroxy-4,7,9,12-tetramethyl-3-oxo-7-vinyldecahydro-4,9a-propancyclopenta[8]cyclo-5-yl)oxy)-2-oxoethyl)thio)-3H-imidazo[4,5-C]pyridine-5-ium]
cell membrane integrity, propidium iodide red fluorescence (1×MIC): obvious red fluorescence was observed | cell membrane integrity, propidium iodide red fluorescence (2×MIC): red fluorescence was significantly enhanced
